Patent US20230043863A1, “HETEROAROMATIC DERIVATIVES FOR USE AS REGULATOR, PREPARATION METHOD THEREFOR AND USE THEREOF” (JIANGSU HANSOH PHARMACEUTICAL GROUP CO., LTD., priority 2018, published 2023)

System: C57BL/6 mouse colitis model induced by DSS
Assay: C57BL/6 mouse colitis model induced by DSS, daily disease index
Format: in vivo
Conditions: po, 216 h, 10 mg/kg p.o. BID, Day 0-9, vs vehicle group, read-out: reduction ratio of DAI AUC
Method: To evaluate the drug efficacy of the embodiment compound on the C57BL/6 mouse colitis model induced by DSS (dextran sulfate sodium).
According to the weight of the animal, BioBook software was used to randomly group the animals on day −1 to ensure that the weight values of each group of animals were similar to reduce deviation, and the grouping and dosing regimen are shown in the following Table.
Drinking water containing DSS: an appropriate amount of DSS powder was dissolved in the autoclaved drinking water to prepare a 2% DSS solution.
On day −1, the animals were equally divided into 12 groups with 10 animals in each group. (Refer to Table 1 for specific grouping scheme)
From 9:00 on day 0 to 9:00 on day 6, the mice in groups 2 to 9 were given 2% DSS aqueous solution for 6 days (from day 0 to day 6), after which the mice were allowed to freely drink normal water for 3 days (from 9:00 on day 6 to before necropsy on day 9). The day of modeling was counted as day 0. The DSS aqueous solution was wrapped in tin foil to protect it from light. The DSS aqueous solution was replaced every 2 days.
The mice in group 1 are allowed to drink normal water freely for 9 days (from 9:00 on day 0 to before necropsy on day 9).
The recording frequency was once a day, and 4 levels were rated according to the following standards:
Bloody stool (0: negative; 4: positive);
Stool score (0: normal; 2: loose stool; 4: diarrhea)
Daily Disease Index (DAI) was obtained by dividing the sum the scores of the above 3 parts by 3. DAI-time (day) curve based on the daily DAI score was plotted, and the peak area (AUC) under the curve was calculated. The reduction ratio of DAI AUC was calculated by comparing the administration group with the vehicle group, with a calculation formula of (DAI AUCadministration group-DAI AUCvehicle)/DAI AUCVehicle×100%

| Compound | change in vivo at 10 mg/kg [%] |
| --- | --- |
| Cc1cc(Nc2nc(N[C@@H]3C[C@H]4CC[C@@H](C3)N4CCC#N)nc3ccsc23)n[nH]1 [Embodiment 60, 3-((3-exo)-3-((4-((5-methyl-1H-pyrazol-3-yl)amino)thieno[3,2-d]pyrimidin-2-yl)amino)-8-azabicyclo[3.2.1]oct-8-yl)propionitrile] | -20.8 |
| COc1ccc2c(Nc3cc(C)[nH]n3)nc(N[C@@H]3C[C@H]4CC[C@@H](C3)N4CCC#N)nc2c1 [Embodiment 169, 3-((3-exo)-3-((7-methoxyl-4-((5-methyl-1H-pyrazol-3-yl)amino)quinazolin-2-yl)amino)-8-azabicyclo[3.2.1]oct-8-yl)propionitrile] | -34.3 |
| Cc1cc(Nc2nc(N[C@@H]3C[C@H]4CC[C@@H](C3)N4CCC#N)nc3cc(Br)ccc23)n[nH]1 [Embodiment 170, 3-((3-exo)-3-((7-bromine-4-((5-methyl-1H-pyrazol-3-yl)amino)quinazolin-2-yl)amino)-8-azabicyclo[3.2.1]oct-8-yl)propionitrile] | -27.9 |
| Cc1cc(Nc2nc(N[C@@H]3C[C@H]4CC[C@@H](C3)N4S(=O)(=O)N3CC(C#N)C3)nc3ccccc23)n[nH]1 [Embodiment 213, 1-(((3-exo)-3-((4-((5-methyl-1H-pyrazol-3-yl)amino)quinazolin-2-yl)amino)-8-azabicyclo[3.2.1]oct-8-yl)sulfonyl)azetindin-3-formonitrile] | -24.4 |
| Cc1cc(Nc2nc(N[C@@H]3C[C@H]4CC[C@@H](C3)N4S(=O)(=O)N3CC(C#N)C3)nc3cc(Cl)ccc23)n[nH]1 [Embodiment 214] | -28.9 |
| Cc1cc(Nc2nc(N[C@@H]3C[C@H]4CCC[C@@H](C3)N4C(=O)CN3CCOCC3)nc3sccc23)n[nH]1 [Embodiment 246, 1-((3-exo)-3-((4-((5-methyl-1H-pyrazol-3-yl)amino)thieno[2,3-d]pyrimidin-2-yl)amino)-9-azabicyclo[3.3.1]non-9-yl)-2-morpholinoethane-1-one] | -38.6 |
| CNCC(=O)N1[C@@H]2CCC[C@H]1C[C@H](Nc1nc(Nc3cc(C)[nH]n3)c3ccsc3n1)C2 [Embodiment 247, 1-((3-exo)-3-((4-((5-methyl-1H-pyrazol-3-yl)amino)thieno[2,3-d]pyrimidin-2-yl)amino)-9-azabicyclo[3.3.1]non-9-yl)-2-(methylamino)-ethane-1-one] | -22.1 |
| Cc1cc(Nc2nc(N[C@@H]3C[C@H]4CCC[C@@H](C3)N4C(=O)c3ccccn3)nc3sccc23)n[nH]1 [Embodiment 260, ((3-exo)-3-((4-((5-methyl-1H-pyrazol-3-yl)amino)thieno[2,3-d]pyrimidin-2-yl)amino)-9-azabicyclo[3.3.1]non-9-yl)(pyridin-2-yl)methanone] | -23.4 |
| Cc1cc(Nc2nc(N[C@@H]3C[C@H]4CCC[C@@H](C3)N4CCC#N)nc3scnc23)n[nH]1 [Embodiment 278, 3-((3-exo)-3-((7-((5-methyl-1H-pyrazol-3-yl)amino)thiazolo[5,4-d]pyrimidin-5-yl)amino)-9-azabicyclo[3.3.1]non-9-yl)propionitrile] | -34.9 |
